Test system: MCF-7 breast cancer cells
Assay: Microarray gene expression analysis (Agilent whole human genome 4 x 44K; compound vs DMSO, LIMMA log2 fold change)
Assay type: cell-based
Conditions: cell cycle genes

Cn1ncc2c(N3CCOCC3)nc(-c3cccc(O)c3)nc21 [ETP-45658]
MLF1 log2FC (Gene 4291): 0.627 | MLH1 log2FC (Gene 4292): 0.538 | MAP3K11 log2FC (Gene 4296): -0.949 | MNAT1 log2FC (Gene 4331): 0.729 | MNT log2FC (Gene 4335): 1.624 | MOS log2FC (Gene 4342): -0.164 | MRE11A log2FC (Gene 4361): 0.332 | MSH2 log2FC (Gene 4436): 0.939 | MSH3 log2FC (Gene 4437): 0.739 | MSH4 log2FC (Gene 4438): -0.048 | MSX1 log2FC (Gene 4487): -0.324 | MSX2 log2FC (Gene 4488): 0.054 | MUC1 log2FC (Gene 4582): -0.901 | TRIM37 log2FC (Gene 4591): 0.868 | MX2 log2FC (Gene 4600): -0.054 | MYB log2FC (Gene 4602): 0.452 | MYBL2 log2FC (Gene 4605): -0.545 | MYC log2FC (Gene 4609): 0.554 | GADD45B log2FC (Gene 4616): 0.642 | MYH9 log2FC (Gene 4627): -0.364 | MYH10 log2FC (Gene 4628): -0.039 | PPP1R12A log2FC (Gene 4659): 0.489 | PPP1R12B log2FC (Gene 4660): 0.389 | NUBP1 log2FC (Gene 4682): -0.227 | NBN log2FC (Gene 4683): 0.839 | NEDD9 log2FC (Gene 4739): -0.017 | NEK1 log2FC (Gene 4750): 0.621 | NEK2 log2FC (Gene 4751): 0.969 | NEUROD1 log2FC (Gene 4760): -0.043 | NGFR log2FC (Gene 4804): -0.063 | NOTCH2 log2FC (Gene 4853): 0.166 | NPAT log2FC (Gene 4863): 0.585 | NPM1 log2FC (Gene 4869): 0.586 | NUP88 log2FC (Gene 4927): 0.539 | ODF2 log2FC (Gene 4957): -0.215 | OSM log2FC (Gene 5008): 0.056 | OVOL1 log2FC (Gene 5017): -0.043 | PAFAH1B1 log2FC (Gene 5048): 0.720 | PAK1 log2FC (Gene 5058): 0.117 | PAK3 log2FC (Gene 5063): 0.230 | PCM1 log2FC (Gene 5108): 0.687 | PCNT log2FC (Gene 5116): 0.317 | PDGFB log2FC (Gene 5155): -0.598 | PDGFRB log2FC (Gene 5159): 0.022 | PGGT1B log2FC (Gene 5229): -0.232 | ABCB1 log2FC (Gene 5243): -0.025 | PIK3C3 log2FC (Gene 5289): 1.044 | PIM1 log2FC (Gene 5292): 1.131 | PIN1 log2FC (Gene 5300): -0.195 | PKD1 log2FC (Gene 5310): 0.265 | PKD2 log2FC (Gene 5311): 0.346 | PKHD1 log2FC (Gene 5314): -0.057 | PLAGL1 log2FC (Gene 5325): 0.310 | PML log2FC (Gene 5371): -0.804 | PMS1 log2FC (Gene 5378): 0.682 | PMS2 log2FC (Gene 5395): 0.442 | POLD1 log2FC (Gene 5424): 0.148 | POLE log2FC (Gene 5426): -0.223 | PPAT log2FC (Gene 5471): 0.243 | PPM1A log2FC (Gene 5494): 0.474 | PPP1CB log2FC (Gene 5500): 1.012 | PPP1CC log2FC (Gene 5501): 0.572 | PPP2R1A log2FC (Gene 5518): -0.055 | PPP2R2A log2FC (Gene 5520): 0.059 | PPP2R4 log2FC (Gene 5524): -0.446 | PPP2R5C log2FC (Gene 5527): 0.888 | PPP3CA log2FC (Gene 5530): 0.422 | PPP5C log2FC (Gene 5536): -0.138 | PPP6C log2FC (Gene 5537): -0.352 | PRCC log2FC (Gene 5546): -0.798 | PRIM1 log2FC (Gene 5557): 0.636 | PRKAA1 log2FC (Gene 5562): 0.429 | PRKAA2 log2FC (Gene 5563): 0.082 | PRKAB1 log2FC (Gene 5564): 0.427 | PRKAB2 log2FC (Gene 5565): 1.177 | PRKACA log2FC (Gene 5566): -0.596 | PKIA log2FC (Gene 5569): -0.378 | PRKAG1 log2FC (Gene 5571): 0.238 | PRKAR1A log2FC (Gene 5573): 0.532 | PRKAR2B log2FC (Gene 5577): 0.565 | PRKCA log2FC (Gene 5578): -0.217 | PRKCD log2FC (Gene 5580): -0.079 | PRKCE log2FC (Gene 5581): -0.042 | PKN2 log2FC (Gene 5586): 0.510 | MAPK1 log2FC (Gene 5594): -0.045 | MAPK3 log2FC (Gene 5595): -0.190 | MAPK13 log2FC (Gene 5603): -0.354 | MAP2K1 log2FC (Gene 5604): -0.107 | MAP2K6 log2FC (Gene 5608): 0.116 | PROX1 log2FC (Gene 5629): 0.206 | KLK10 log2FC (Gene 5655): -0.446 | PSMA1 log2FC (Gene 5682): 0.045 | PSMA4 log2FC (Gene 5685): 0.609 | PSMA6 log2FC (Gene 5687): 0.200 | PSMB1 log2FC (Gene 5689): 0.085 | PSMB2 log2FC (Gene 5690): -0.547 | PSMB3 log2FC (Gene 5691): -0.030 | PSMB5 log2FC (Gene 5693): -0.298 | PSMB6 log2FC (Gene 5694): -0.120 | PSMB8 log2FC (Gene 5696): -0.045 | PSMC1 log2FC (Gene 5700): 0.172 | PSMC2 log2FC (Gene 5701): 0.576 | PSMC5 log2FC (Gene 5705): -0.327 | PSMC6 log2FC (Gene 5706): 0.776 | PSMD2 log2FC (Gene 5708): 0.090 | PSMD3 log2FC (Gene 5709): -0.109 | PSMD4 log2FC (Gene 5710): -0.086 | PSMD5 log2FC (Gene 5711): 0.388 | PSMD7 log2FC (Gene 5713): 0.182 | PSMD9 log2FC (Gene 5715): -0.171 | PSMD12 log2FC (Gene 5718): -0.582 | PSMD13 log2FC (Gene 5719): -0.031 | PSME2 log2FC (Gene 5721): 0.039 | PTEN log2FC (Gene 5728): 1.014 | PTGS2 log2FC (Gene 5743): -0.151 | PTPN3 log2FC (Gene 5774): -0.174 | PTPN6 log2FC (Gene 5777): 0.120 | PTPRC log2FC (Gene 5788): -0.053 | PTPRK log2FC (Gene 5796): 0.583 | RAD1 log2FC (Gene 5810): -0.104 | RAD9A log2FC (Gene 5883): 0.686 | RAD17 log2FC (Gene 5884): 1.203 | RAD21 log2FC (Gene 5885): 1.043 | RAD51 log2FC (Gene 5888): -0.360 | RAD52 log2FC (Gene 5893): 0.105 | RAN log2FC (Gene 5901): 0.119 | RANBP1 log2FC (Gene 5902): -0.137 | RANBP2 log2FC (Gene 5903): 0.605 | RARA log2FC (Gene 5914): -0.580 | RASA1 log2FC (Gene 5921): 0.488 | RB1 log2FC (Gene 5925): 0.746 | RBL2 log2FC (Gene 5934): 0.480 | RFC1 log2FC (Gene 5981): 1.105 | RFC2 log2FC (Gene 5982): 0.117 | RFC5 log2FC (Gene 5985): 0.243 | RGS2 log2FC (Gene 5997): -2.314 | RHEB log2FC (Gene 6009): 0.421 | RNF2 log2FC (Gene 6045): -0.048 | RNF4 log2FC (Gene 6047): -0.426 | RPA3 log2FC (Gene 6119): 0.162 | RPS6KA2 log2FC (Gene 6196): 0.035 | RPS6KA3 log2FC (Gene 6197): 0.412 | RPS15A log2FC (Gene 6210): 0.277 | RPS27 log2FC (Gene 6232): 0.416 | RPS27A log2FC (Gene 6233): 0.401 | RRM1 log2FC (Gene 6240): 0.612 | RRM2 log2FC (Gene 6241): -0.808 | SETMAR log2FC (Gene 6419): -0.171 | SIAH2 log2FC (Gene 6478): -0.579 | SKP2 log2FC (Gene 6502): -1.072 | SMARCA4 log2FC (Gene 6597): -0.352 | SOX2 log2FC (Gene 6657): 0.298 | SOX9 log2FC (Gene 6662): -2.381 | SPAST log2FC (Gene 6683): 0.519 | SPTBN1 log2FC (Gene 6711): 0.111 | SRPK2 log2FC (Gene 6733): 0.850 | TRIM21 log2FC (Gene 6737): -0.066

Source: publication PMC4303209, “A novel phosphatidylinositol 3-kinase (PI3K) inhibitor directs a potent FOXO-dependent, p53-independent cell cycle arrest phenotype characterized by the differential induction of a subset of FOXO-regulated genes” (Breast Cancer Research : BCR, 2014)
